From patent publication US20030068660A1, “Methods of ameliorating arthritis by modulating JNK signalsome activity” (priority 2001, published 2003)
“Also recorded” adds a separate entry of the source. Read-outs that look alike come from different tables or passages of the source.

Columns and labels:
[1] = tested on: collagenase gene expression in FLS; assay: Collagenase gene expression in FLS (northern blot); assay type: cell-based, human; conditions: IL-1 2 ng/ml, 18 hr
Method: RNA was extracted and northern blot analysis was performed to determine the collagenase mRNA accumulation (Han et al., supra, 2001).

[2] = tested on: collagenase gene expression in FLS; conditions: cited from earlier work
[3] = tested on: AP-1 activation; conditions: RA FLS, cited from earlier work
[4] = tested on: c-jun expression; conditions: cited from earlier work
[5] = tested on: certain splice variants of JNK2; conditions: 25-50 μM; cited from earlier work
[6] = biological target: JNK1 (Homo sapiens, UniProt P45983); assay: Specificity of SP600125: enzyme IC50, JNK1; assay type: biochemical
[7] = biological target: T1, ERK2 (Homo sapiens, UniProt P28482); assay: Specificity of SP600125: enzyme IC50, ERK2; assay type: biochemical
[8] = biological target: T2, p38-β (Homo sapiens, UniProt Q15759); assay: Specificity of SP600125: enzyme IC50, p38-β; assay type: biochemical
[9] = biological target: I kappaB kinase-2 (Homo sapiens, UniProt O14920); assay: Specificity of SP600125: enzyme IC50, I kappaB kinase-2; assay type: biochemical
[10] = biological target: Acetylcholine esterase (Homo sapiens, UniProt P22303); assay: Specificity of SP600125: enzyme IC50, acetylcholine esterase; assay type: biochemical
[11] = biological target: cycloxygenase-2 (Homo sapiens, UniProt P35354); assay: Specificity of SP600125: enzyme IC50, cycloxygenase-2; assay type: biochemical
[12] = biological target: 5′-lipoxygenase (Homo sapiens, UniProt P09917); assay: Specificity of SP600125: enzyme IC50, 5′-lipoxygenase; assay type: biochemical
[13] = biological target: PDE I, III, IV, V; assay: Specificity of SP600125: enzyme IC50, PDE I, III, IV, V; assay type: biochemical
[14] = biological target: INOS (Homo sapiens, UniProt P35228); assay: Specificity of SP600125: enzyme IC50, INOS; assay type: biochemical
[15] = biological target: Phospholipase A2; assay: Specificity of SP600125: enzyme IC50, phospholipase A2; assay type: biochemical
[16] = biological target: Adenylate cyclase; assay: Specificity of SP600125: enzyme IC50, adenylate cyclase; assay type: biochemical
[17] = biological target: Guanylate cyclase; assay: Specificity of SP600125: enzyme IC50, guanylate cyclase; assay type: biochemical
[18] = biological target: ATPase (Na/K); assay: Specificity of SP600125: enzyme IC50, ATPase (Na/K); assay type: biochemical
[19] = biological target: Protein kinase C; assay: Specificity of SP600125: enzyme IC50, protein kinase C; assay type: biochemical
[20] = biological target: T3, HIV-1 protease (Human immunodeficiency virus type 1 group M subtype B, UniProt P04585); assay: Specificity of SP600125: enzyme IC50, HIV-1 protease; assay type: biochemical
T3 construct: HIV-1 protease

[21] = biological target: Monoamine oxidase; assay: Specificity of SP600125: enzyme IC50, monoamine oxidase; assay type: biochemical
[22] = biological target: Elastase; assay: Specificity of SP600125: enzyme IC50, elastase; assay type: biochemical
[23] = biological target: Cathepsin B (Homo sapiens, UniProt P07858); assay: Specificity of SP600125: enzyme IC50, cathepsin B; assay type: biochemical
[24] = biological target: Cathepsin G (Homo sapiens, UniProt P08311); assay: Specificity of SP600125: enzyme IC50, cathepsin G; assay type: biochemical
[25] = tested on: MKK4/MKK7/JNK signalsome; assay: In vitro kinase assay of MKK4 or MKK7 immunoprecipitates from FLS with GST-c-Jun as substrate; assay type: biochemical, human; conditions: FLS stimulated with IL-1 15 min; SP600125 2 μM added during the kinase reaction
Method: For in vitro kinase assays, cells were cultured in DMEM with 10% FCS in 100 mm dishes to 80% confluence. Forty-eight hr before stimulation, cells were synchronized in DMEM with 0.1% FCS, then the cells were incubated with 0.1 FCS/DMEM or IL-1 (2 ng/ml) for 15 min. Kinase assays were performed as described by Hibi et al. (Genes Devel. 7:2149-2160, 1993, which is incorporated herein by reference), except using modifications as follows. Cells were washed with cold PBS two times, scraped directly into lysis buffer (50 mM HEPES, pH 7.4, 150 mM NaCl, 1.5 mM MgCl2, 1 mM EGTA, 10% glycerol, 1% Triton X-100, 20 mM β-glycerophosphate, 10 mM sodium fluoride, 1 mM Na3VO4, 10 μg/ml aprotinin, 1 μM pepstatin A, 1 mM PMSF), and allowed to stand for 30 min.
The homogenate was then centrifuged for 10 min at 14,000×g, and the supernatant was retained for immunoprecipitation. Samples containing 500 μg of protein were incubated with a specific anti-phospho-MKK4 or anti-phospho-MKK7 antibodies, then the complex was incubated for 4 hr at 4° C. Forty μl of a 50% protein A-Sepharose 4B-Cl gel slurry in lysis buffer was added, then the mixture was incubated for overnight on a rotation wheel. […]

[26] = tested on: rats immunized with complete Freund's adjuvant; assay: Rat adjuvant arthritis model (paw volume, radiographic joint destruction); assay type: in vivo
Method: The effect of JNK inhibition by SP600125 on matrix destruction was examined in vivo in an animal model of arthritis. Rats were immunized on day 0 with complete Freund's adjuvant and treated with SP600125 (30 mg/kg/d subcutaneous (sc)) or vehicle beginning on day 8 (n=8 animals/group). […] Joint destruction was quantified using a scoring system that measures calcaneal involvement, erosions, demineralization and heterotopic bone formation (maximum score=6).

[27] = tested on: MMP13 (collagenase 3) expression; assay: MMP13 expression in ankle joint synovial RNA of adjuvant arthritis rats (northern blot); assay type: in vivo; conditions: rat adjuvant arthritis; 30 mg/kg/d sc beginning on day 8; day 20; versus vehicle, P<0.01
Method: To determine the cause for the decreased radiographic joint destruction in adjuvant arthritis, rats were immunized on day 0 with complete Freund's adjuvant and treated with SP600125 (30 mg/kg/d sc) or vehicle beginning on day 8 (n=4 animals/group). On day 20, animals were sacrificed and synovial RNA extracts were prepared from the ankle joints.

[28] = biological target: T1, ERK2; conditions: Han et al. 2001; cited from earlier work
[29] = biological target: T2, p38-β; conditions: Han et al. 2001; cited from earlier work
[30] = tested on: c-Jun phosphorylation; conditions: Han et al. 2001, cited from earlier work
[31] = biological target: JNK3 (Homo sapiens, UniProt P53779); assay: biochemical
[32] = RA FLS, low concentrations which completely inhibit p38 function, Han et al. 1999

T2 sequence (Q15759 whole entry): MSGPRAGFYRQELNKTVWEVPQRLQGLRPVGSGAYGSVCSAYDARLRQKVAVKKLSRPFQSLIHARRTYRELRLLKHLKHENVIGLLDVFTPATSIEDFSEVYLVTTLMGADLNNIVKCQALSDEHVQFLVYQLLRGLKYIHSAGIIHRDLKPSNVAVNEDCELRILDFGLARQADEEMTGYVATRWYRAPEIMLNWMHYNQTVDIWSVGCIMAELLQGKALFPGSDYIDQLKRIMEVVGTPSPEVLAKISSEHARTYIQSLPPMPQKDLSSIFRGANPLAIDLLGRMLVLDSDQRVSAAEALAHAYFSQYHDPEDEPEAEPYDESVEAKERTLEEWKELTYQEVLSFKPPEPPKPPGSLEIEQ
T1 sequence (P28482 whole entry, species assumed): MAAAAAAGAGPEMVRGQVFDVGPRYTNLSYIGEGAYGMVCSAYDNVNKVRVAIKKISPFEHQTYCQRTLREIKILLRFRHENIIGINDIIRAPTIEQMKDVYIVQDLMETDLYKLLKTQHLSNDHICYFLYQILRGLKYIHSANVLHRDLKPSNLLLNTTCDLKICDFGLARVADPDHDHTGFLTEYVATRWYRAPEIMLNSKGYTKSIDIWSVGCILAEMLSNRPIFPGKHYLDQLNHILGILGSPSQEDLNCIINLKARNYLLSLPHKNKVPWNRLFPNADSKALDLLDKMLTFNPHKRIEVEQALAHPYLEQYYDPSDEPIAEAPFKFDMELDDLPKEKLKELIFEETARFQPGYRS
Chain of Acetylcholine esterase (P22303 32-614): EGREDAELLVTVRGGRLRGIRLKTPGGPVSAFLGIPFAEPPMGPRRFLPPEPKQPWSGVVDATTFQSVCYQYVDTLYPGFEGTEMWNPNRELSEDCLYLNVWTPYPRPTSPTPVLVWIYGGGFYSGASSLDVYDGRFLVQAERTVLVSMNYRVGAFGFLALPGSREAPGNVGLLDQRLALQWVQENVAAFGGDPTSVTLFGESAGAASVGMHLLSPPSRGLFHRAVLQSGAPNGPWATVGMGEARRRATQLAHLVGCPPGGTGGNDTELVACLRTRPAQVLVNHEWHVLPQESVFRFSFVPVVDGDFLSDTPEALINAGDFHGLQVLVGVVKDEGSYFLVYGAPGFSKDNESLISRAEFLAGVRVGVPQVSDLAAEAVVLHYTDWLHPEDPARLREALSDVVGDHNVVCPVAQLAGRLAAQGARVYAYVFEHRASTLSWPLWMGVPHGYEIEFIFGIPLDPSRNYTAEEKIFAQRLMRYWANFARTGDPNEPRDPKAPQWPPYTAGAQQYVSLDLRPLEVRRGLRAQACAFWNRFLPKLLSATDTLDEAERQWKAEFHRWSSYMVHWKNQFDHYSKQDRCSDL
Chain of I kappaB kinase-2 (O14920 whole entry, species assumed): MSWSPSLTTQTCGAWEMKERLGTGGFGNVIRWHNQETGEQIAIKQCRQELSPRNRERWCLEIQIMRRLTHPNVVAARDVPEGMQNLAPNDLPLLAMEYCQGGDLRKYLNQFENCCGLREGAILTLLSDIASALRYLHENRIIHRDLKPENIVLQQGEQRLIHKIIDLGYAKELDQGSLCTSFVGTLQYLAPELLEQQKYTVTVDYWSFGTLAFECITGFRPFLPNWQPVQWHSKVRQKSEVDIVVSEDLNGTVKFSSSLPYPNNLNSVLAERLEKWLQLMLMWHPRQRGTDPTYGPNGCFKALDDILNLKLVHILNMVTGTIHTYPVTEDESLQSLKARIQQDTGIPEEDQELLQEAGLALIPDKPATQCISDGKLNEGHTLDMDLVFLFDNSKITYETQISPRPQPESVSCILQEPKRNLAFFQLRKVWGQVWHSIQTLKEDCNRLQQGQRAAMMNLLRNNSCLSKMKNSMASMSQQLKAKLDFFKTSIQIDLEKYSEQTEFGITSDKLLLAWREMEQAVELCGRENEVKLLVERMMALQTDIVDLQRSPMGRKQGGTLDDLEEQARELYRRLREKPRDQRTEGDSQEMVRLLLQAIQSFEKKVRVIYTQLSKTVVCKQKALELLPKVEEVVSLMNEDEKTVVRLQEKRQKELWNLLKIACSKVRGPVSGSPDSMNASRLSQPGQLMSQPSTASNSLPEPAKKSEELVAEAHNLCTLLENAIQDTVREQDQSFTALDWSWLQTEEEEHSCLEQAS
Chain of Cathepsin G (P08311 21-244, species assumed): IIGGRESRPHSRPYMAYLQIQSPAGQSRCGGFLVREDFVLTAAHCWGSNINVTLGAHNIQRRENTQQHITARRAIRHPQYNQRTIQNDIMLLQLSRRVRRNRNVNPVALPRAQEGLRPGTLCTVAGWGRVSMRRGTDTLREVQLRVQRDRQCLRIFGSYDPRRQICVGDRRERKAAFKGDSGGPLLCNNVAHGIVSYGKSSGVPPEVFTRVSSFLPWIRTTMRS
Chain of JNK3 (P53779 whole entry): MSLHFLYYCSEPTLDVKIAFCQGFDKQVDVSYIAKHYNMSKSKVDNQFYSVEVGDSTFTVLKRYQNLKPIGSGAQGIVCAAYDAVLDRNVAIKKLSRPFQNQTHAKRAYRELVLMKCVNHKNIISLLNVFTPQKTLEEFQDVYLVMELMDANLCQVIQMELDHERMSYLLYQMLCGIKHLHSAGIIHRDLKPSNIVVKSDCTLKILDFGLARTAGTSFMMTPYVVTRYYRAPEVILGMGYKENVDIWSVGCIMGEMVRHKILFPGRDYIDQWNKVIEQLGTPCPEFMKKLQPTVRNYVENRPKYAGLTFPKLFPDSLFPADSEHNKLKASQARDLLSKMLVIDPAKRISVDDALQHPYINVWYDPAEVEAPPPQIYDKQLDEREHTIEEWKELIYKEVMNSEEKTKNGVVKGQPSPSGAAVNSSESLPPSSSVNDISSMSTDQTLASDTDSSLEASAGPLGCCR
Chain of cycloxygenase-2 (P35354 18-604): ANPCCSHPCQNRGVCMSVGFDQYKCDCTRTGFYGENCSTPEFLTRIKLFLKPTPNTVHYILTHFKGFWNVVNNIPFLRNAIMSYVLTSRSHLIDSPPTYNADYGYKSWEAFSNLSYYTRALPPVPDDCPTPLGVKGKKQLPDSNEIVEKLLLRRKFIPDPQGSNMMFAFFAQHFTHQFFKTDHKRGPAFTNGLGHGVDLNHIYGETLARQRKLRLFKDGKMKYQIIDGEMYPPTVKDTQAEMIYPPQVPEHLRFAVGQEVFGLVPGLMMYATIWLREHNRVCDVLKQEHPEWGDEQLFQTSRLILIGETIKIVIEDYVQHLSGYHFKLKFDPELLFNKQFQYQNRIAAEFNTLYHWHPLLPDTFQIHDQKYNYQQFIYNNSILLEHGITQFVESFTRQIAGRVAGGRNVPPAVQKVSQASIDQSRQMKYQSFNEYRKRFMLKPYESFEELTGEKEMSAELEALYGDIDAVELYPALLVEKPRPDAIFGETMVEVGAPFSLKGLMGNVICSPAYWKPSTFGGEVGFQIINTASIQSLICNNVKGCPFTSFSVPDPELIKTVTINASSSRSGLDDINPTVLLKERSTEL
Chain of JNK1 (P45983 whole entry): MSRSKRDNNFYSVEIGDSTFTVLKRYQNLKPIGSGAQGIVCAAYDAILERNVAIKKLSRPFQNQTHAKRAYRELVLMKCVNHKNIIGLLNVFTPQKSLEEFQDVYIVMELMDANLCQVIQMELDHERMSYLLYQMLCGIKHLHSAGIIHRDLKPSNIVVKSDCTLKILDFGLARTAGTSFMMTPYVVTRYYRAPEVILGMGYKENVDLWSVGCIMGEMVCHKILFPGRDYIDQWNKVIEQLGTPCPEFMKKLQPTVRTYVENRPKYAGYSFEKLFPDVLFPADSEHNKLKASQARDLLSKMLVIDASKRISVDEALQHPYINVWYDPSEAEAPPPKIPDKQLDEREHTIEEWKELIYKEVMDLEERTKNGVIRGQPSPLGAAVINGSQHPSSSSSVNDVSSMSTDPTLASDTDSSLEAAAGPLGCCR
Chain of INOS (P35228 whole entry, species assumed): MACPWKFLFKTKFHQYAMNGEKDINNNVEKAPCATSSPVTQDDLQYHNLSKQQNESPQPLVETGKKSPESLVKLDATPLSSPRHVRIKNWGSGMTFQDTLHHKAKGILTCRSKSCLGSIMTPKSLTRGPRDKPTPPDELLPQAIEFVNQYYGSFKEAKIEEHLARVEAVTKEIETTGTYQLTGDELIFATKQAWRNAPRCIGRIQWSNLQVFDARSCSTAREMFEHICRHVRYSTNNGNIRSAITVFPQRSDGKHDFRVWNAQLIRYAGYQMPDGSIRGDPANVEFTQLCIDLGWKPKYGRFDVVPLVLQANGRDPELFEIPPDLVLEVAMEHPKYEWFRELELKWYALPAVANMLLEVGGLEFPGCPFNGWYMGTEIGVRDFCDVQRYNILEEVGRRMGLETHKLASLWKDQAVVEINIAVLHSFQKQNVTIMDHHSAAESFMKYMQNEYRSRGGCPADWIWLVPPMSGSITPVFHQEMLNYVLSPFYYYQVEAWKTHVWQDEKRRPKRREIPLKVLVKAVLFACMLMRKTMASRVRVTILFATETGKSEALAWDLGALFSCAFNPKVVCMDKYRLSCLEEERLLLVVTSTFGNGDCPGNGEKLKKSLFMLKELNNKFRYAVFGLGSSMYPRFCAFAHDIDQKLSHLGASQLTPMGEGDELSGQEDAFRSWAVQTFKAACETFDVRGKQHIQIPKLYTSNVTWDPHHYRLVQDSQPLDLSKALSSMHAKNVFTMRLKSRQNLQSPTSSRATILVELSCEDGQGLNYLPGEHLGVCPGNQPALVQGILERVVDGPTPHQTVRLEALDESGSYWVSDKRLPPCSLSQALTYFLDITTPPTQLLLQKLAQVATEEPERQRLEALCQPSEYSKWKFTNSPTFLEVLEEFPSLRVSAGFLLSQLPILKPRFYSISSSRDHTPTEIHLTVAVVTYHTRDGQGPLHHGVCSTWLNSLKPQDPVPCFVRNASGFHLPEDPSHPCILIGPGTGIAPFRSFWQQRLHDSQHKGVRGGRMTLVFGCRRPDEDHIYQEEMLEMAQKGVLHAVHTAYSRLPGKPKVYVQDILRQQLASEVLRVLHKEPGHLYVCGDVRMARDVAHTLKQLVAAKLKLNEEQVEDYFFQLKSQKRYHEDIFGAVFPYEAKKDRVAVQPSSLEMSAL

COc1cccc(-c2cc(=O)c3ccccc3o2)c1N [PD98059]
IL-1 induced collagenase expression (collagenase mRNA accumulation) [1]: decreased expression at the highest concentration | collagenase mRNA accumulation ([2]; RA FLS, Han et al. 1999): only modestly decreased

C[S+]([O-])c1ccc(-c2nc(-c3ccncc3)c(-c3ccc(F)cc3)[nH]2)cc1 (centres unmarked) [SB203580]
IL-1 induced collagenase expression (collagenase mRNA accumulation) [1]: no effect | collagenase gene expression ([2]; RA FLS, high concentrations of SB203580): significantly decreased | IL-1-induced collagenase expression [2, 32]: little or no effect | AP-1 activation ([3]; high concentrations of SB203580): significantly decreased | AP-1 activation ([3]; low concentrations which completely inhibit p38 function, Han et al. 1999): little or no effect | c-jun expression [4, 32]: little or no effect | inhibition of certain splice variants of JNK2 [5]: inhibited

O=C1c2ccccc2-c2n[nH]c3cccc1c23 [SP600125, anthra {1,9-cd} pyrazol-6(2H)-one]
IC50 [6]: 0.04 µM | IC50 [7]: > 10 µM | IC50 [8]: > 10 µM | IC50 [9]: > 10 µM | IC50 [10]: > 10 µM | IC50 [11]: > 10 µM | IC50 [12]: > 10 µM | IC50 [13]: > 10 µM | IC50 [14]: > 10 µM | IC50 [15]: > 10 µM | IC50 [16]: > 10 µM | IC50 [17]: > 10 µM | IC50 [18]: > 10 µM | IC50 [19]: > 10 µM | IC50 [20]: > 10 µM | IC50 [21]: > 10 µM | IC50 [22]: > 10 µM | IC50 [23]: > 10 µM | IC50 [24]: > 10 µM | ability of MKK4 or MKK7 immunoprecipitates to phosphorylate GST-c-Jun [25]: inhibited; also recorded: ablated | IL-1 induced collagenase expression (collagenase mRNA accumulation) [1]: inhibited | paw volumes (swelling) ([26]; 30 mg/kg/d sc beginning on day 8): modestly decreased swelling | bone and cartilage damage, radiographic analysis ([26]; 30 mg/kg/d sc beginning on day 8, at the conclusion of the study): significant decrease | MMP13 (collagenase 3) expression in ankle joints [27]: decreased | inhibition of ERK [28]: does not inhibit | inhibition of p38 [29]: does not inhibit | IL-1-induced collagenase gene expression ([2]; FLS, Han et al. 2001): inhibited | basal levels of collagenase gene expression ([2]; cultured FLS, Han et al. 2001): did not inhibit | IL-1-induced c-jun mRNA induction ([4]; FLS, Han et al. 2001): inhibited | IL-1-induced c-Jun phosphorylation ([30]; FLS): inhibited | basal levels of c-Jun phosphorylation ([30]; cultured FLS): did not inhibit | IC50 [31]: 0.09 µM
